PMC5316807, “Protective role of fructokinase blockade in the pathogenesis of acute kidney injury in mice” (Nature Communications, 2017)

Target: T1, fructokinase (ketohexokinase, KHK) (Homo sapiens, UniProt P50053)
T1 sequence (P50053 1-298): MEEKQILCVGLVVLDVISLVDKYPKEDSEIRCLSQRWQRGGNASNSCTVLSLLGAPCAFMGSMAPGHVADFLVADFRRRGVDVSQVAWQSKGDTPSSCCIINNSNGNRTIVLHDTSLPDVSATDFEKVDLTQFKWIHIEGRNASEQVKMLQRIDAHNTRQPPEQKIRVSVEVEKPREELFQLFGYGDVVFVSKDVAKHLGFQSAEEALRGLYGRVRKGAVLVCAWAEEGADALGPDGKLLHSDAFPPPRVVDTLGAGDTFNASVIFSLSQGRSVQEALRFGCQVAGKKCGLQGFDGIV
Assay: fructose-dependent ATP depletion assay in HK-2 (human proximal tubule) cell lysates, KHK-deficient HK-2 cells as background control
Type: biochemical

`O=c1cc(-c2ccc(O)c(O)c2)oc2cc(O)cc(O)c12` [luteolin] was tested. Which IC50 did it give?
Its IC50 is 11.2 µM.
